This note sets out measurements from US9353140B2, “BQC-G, a tumor-selective anti-cancer prodrug” (priority 2009, dated 2016).

In one data set the test system is LS174T. Kind of data set: In vitro cytotoxicity (3H-thymidine incorporation), LS174T. The data set is classed as cell-based. How it is done: (§1) 5000-10000 cells/well in 96 well plate were exposed to graded concentration of the compounds for 48 h in the absence or presence of 40 mg/ml HSA. E. coli β-glucuronidase (1 μg/well) was added with BCC-G in some experiments. The cells were washed twice with PBS and incubated in fresh medium for 24 h before the cells were pulsed with 1 μC/well of ^3H-thimidine for 16 h. Cellular radioactivity in harvested cells was counted on a Topcount scintillation counter and IC50 values were calculated by fitting the data to a sigmoidal dose/response equation.
Background: Uptake of a labelled nucleoside into DNA is a usual measure of proliferation.

Data set [1] concerns EJ human bladder carcinoma cells. Kind of data set: In vitro cytotoxicity (3H-thymidine incorporation), EJ. The data set is classed as cell-based.
Text: (§2) The cancer cell lines were from ATCC except for CL1-5 human lung adenocarcinoma which was generous gift from Dr. PC Yang and EJ human bladder carcinoma cells. See Yang, P. C. et al., Characterization of the mucin differentiation in human lung adenocarcinoma cell lines. American journal of respiratory cell and molecular biology 1992, 7, 161-171; Marshall, C. J. et al., Markers of neoplastic transformation in epithelial cell lines derived from human carcinomas. J Natl Cancer Inst 1977, 58, 1743-51.
as §1

In data set [2] the test system is CL1-5 human lung adenocarcinoma cells. Kind of data set: In vitro cytotoxicity (3H-thymidine incorporation), CL1-5. The format is cell-based. The protocol: CL1-5 cells were exposed to the indicated concentrations of drugs with or without the addition of human serum albumin to 40 mg/ml. […] Bars show the SD.
as §2, §1

The subject of a further data set is CaSki. Kind of data set: In vitro cytotoxicity (3H-thymidine incorporation), CaSki. The data set is classed as cell-based. How it is done:
as §1

For the next data set, the target named is E. coli β-glucuronidase (Escherichia coli, UniProt P05804). The settings on record: for Kcat / Km: enzymatic hydrolysis by E. coli β-glucuronidase.
The nature of the next data set: Water solubility. The format is physicochemical. How it is done:
[…] Mixtures were centrifuged for 40 min at 20,000 g at room temperature. A sample from the water layer was analyzed by HPLC and quantified using standard curves generated with pure BQC and BQC-G.

Data set [3] in a line: Stability in blood (human plasma/serum, 37° C., 24 h). The format is in vitro ADME. The settings on record: 24 h at 37° C. How it is done: Normal human plasma was spiked with BQC-G to 5 μM. The mixture was incubated 24 h at 37° C. during which time samples were periodically removed and analyzed by SPE-HPLC.
The target of a further data set is T1, human β-glucuronidase (Homo sapiens, UniProt P08236).
T1 sequence (P08236 23-651): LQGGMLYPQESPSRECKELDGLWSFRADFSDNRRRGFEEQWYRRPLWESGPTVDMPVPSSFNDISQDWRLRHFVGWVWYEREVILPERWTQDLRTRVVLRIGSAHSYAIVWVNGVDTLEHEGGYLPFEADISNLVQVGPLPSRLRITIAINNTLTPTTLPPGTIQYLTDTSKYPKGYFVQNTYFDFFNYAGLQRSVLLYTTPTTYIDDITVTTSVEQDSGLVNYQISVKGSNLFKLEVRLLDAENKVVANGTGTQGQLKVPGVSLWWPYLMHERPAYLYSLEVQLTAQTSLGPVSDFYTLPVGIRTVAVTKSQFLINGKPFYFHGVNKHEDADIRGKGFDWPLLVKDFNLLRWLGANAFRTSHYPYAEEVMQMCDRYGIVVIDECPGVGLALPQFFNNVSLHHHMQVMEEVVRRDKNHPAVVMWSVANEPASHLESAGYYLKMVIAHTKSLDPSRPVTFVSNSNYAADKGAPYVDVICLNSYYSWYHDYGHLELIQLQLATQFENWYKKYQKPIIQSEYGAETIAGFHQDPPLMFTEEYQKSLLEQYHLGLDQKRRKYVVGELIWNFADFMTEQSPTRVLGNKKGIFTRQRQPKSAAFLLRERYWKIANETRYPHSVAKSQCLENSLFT
Briefly: Hydrolysis of BQC-G by human β-glucuronidase. The format is biochemical. Conditions: low concentrations of human β-glucuronidase. The source says:
Hydrolysis of BQC-G by β-glucuronidase

Data set [4] is described as follows: Octanol/water partition coefficient. The data set is classed as physicochemical. Conditions: for Po/w (octanol/water partition coefficient): Buffer pH 4.5. The protocol:
Octanol/Water Partition Coefficient
[…] One μg of either BQC or BQC-G was added to a mixture of 250 μl octanol and 250 μl of one of the three water based pre-equilibrated solvents. After mixing for 24 h at RT, the samples were centrifuged 20 min at 10,000×g. Samples of the octanol and water layers were analyzed by HPLC.

In the next data set the test system is other cancer cell lines. Kind of data set: In vitro cytotoxicity, other cancer cell lines. The data set is classed as cell-based. The protocol:
as §1

Setting [5] is: Homo sapiens, CL1-5, CL1-5, +HSA (40 mg/ml).
Where [6] appears, read: Homo sapiens, CL1-5, CL1-5, −HSA.

≈ marks a conversion by molar mass, not a printed value. Where “and” joins values, the source holds several entries; their conditions need not be identical. Equal values may be shown once. Read-outs that look alike come from different tables or passages of the source.

Chain of E. coli β-glucuronidase (P05804 whole entry): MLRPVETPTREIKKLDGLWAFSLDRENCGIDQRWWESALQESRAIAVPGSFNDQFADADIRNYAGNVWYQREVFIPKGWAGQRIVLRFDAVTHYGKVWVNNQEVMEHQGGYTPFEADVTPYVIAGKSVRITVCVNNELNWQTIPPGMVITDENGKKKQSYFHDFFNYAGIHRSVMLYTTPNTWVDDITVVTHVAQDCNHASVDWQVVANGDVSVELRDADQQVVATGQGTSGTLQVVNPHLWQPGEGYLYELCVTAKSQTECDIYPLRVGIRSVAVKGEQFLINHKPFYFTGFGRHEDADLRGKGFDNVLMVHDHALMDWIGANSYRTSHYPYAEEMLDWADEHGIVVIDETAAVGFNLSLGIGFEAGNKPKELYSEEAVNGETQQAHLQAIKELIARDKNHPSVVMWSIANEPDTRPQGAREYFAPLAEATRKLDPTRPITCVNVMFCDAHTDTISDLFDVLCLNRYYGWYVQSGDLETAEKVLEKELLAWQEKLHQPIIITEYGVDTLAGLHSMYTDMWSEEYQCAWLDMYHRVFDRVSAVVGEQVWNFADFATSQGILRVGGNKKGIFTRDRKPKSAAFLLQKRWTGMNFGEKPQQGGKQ

Consider `CC[C@@]1(O)C(=O)OCc2c1cc1n(c2=O)Cc2cc3ccccc3nc2-1` [CPT, camptothecin], for which the concentration for half-maximal inhibition (IC50) (commonly the point on the concentration scale where inhibition reaches its midpoint) with LS174T (Homo sapiens) is 9.7 ± 0.8 nM; in data set [1] (Homo sapiens) it was 21 ± 3.9 nM; in data set [2] (setting [5]), above 3000 nM; in [2] (setting [6]), 20.5 ± 1.3 nM; in the data set on CaSki (Homo sapiens, Ca-Ski), 20 ± 2.1 nM. For the same molecule, the “Cytotoxicity Ratio (IC50 in the presence of HSA to IC50 without HSA)” value in data set [2] (CL1-5) is listed as above 146. Besides, in data set [2] (CL1-5, in the presence of HSA), the “effect of HSA on cytotoxicity” value is reported as “drastically reduced”.
As to `CC[C@@]1(O)C(=O)OCc2c1cc1n(c2=O)Cc2cc3c(N)cccc3nc2-1` [9AC, 9-amino-camptothecin], in data set [2], the “Cytotoxicity Ratio (IC50 in the presence of HSA to IC50 without HSA)” value came out at 140 and the “effect of HSA on cytotoxicity” value was “profound decrease in cytotoxicity”. In addition, the IC50 in data set [2] (CL1-5, +HSA (40 mg/ml)) is 1370 ± 70 nM. In addition, the IC50 in [2] (CL1-5, −HSA) worked out at 9.8 ± 0.3 nM.
Turning to `Cc1cc(=O)oc2cc(O[C@@H]3O[C@H](C(=O)O)[C@@H](O)[C@H](O)[C@H]3O)ccc12` [4-MUG, 4-methylumbelliferyl-β-D-glucuronide], on E. coli β-glucuronidase, the Kcat was 22.2 s⁻¹ and the Km – broadly, the concentration of substrate that gives half-maximal velocity – amounted to 80.2 ± 12.4 µM.
Take `CC[C@@]1(O)C(=O)OCc2c1cc1n(c2=O)Cc2cc3c(CN(C)C)c(O)ccc3nc2-1` [topotecan]: the IC50 in data set [2] (setting [5]) was determined as 28.4 ± 0.7 nM; in data set [2] (setting [6]) it was 27.8 ± 0.3 nM.
On to `CCc1c2c(nc3ccc(O)cc13)-c1cc3c(c(=O)n1C2)COC(=O)[C@]3(O)CC` [SN-38], for which the “Cytotoxicity Ratio (IC50 in the presence of HSA to IC50 without HSA)” value in data set [2] came to 9.1. Also, the IC50 in data set [2] (CL1-5, +HSA (40 mg/ml)) was determined as 47.9 ± 1.9 nM; in data set [2] (CL1-5, −HSA), 5.25 ± 0.08 nM.
As for `CC[C@@]1(O)C(=O)OCc2c1cc1n(c2=O)Cc2c-1nc1ccc(OCc3ccc(O[C@@H]4O[C@H](C(=O)O)[C@@H](O)[C@H](O)[C@H]4O)c([N+](=O)[O-])c3)c3c1c2CCC3` [BQC-G], in “Water solubility” (Buffer pH 7.0), the Solubility (usually how much of the substance goes into solution per volume) was 775 µg/mL (≈ 1060 µM). Moreover, in the data set “Water solubility” (pH 7.0), the “solubility in water based buffers” value was found to be 775 µg/mL (≈ 1060 µM). Also, the “solubility in water based buffers relative to BQC” value in “Water solubility” (versus BQC) is “about 4000 fold”. Further, the IC50 with LS174T is 24.6 ± 2.8 nM; in [1], 44.8 ± 0.7 nM; in data set [2] (CL1-5, +HSA (40 mg/ml)), 1080 nM; in data set [2] (CL1-5, in the presence of HSA, hydrolyzed by β-glucuronidase), 13 nM; in [2] (CL1-5, without HSA, β-glucuronidase added) it was 1.3 nM; in [2] (CL1-5, −HSA) it was 58 nM and 58.7 nM. Further, in the data set with CaSki, half-maximal inhibition (IC50) required 31.2 ± 0.5 nM. Besides, the “stability in human serum” value in [3] is given as “only trace amounts of BQC detected”. Moreover, the “hydrolysis to the parental aglycone BQC” value on human β-glucuronidase and at E. coli β-glucuronidase (low concentrations of E. coli β-glucuronidase) was “completely hydrolyzed” each time. Further, in data set [2] (CL1-5), the “Cytotoxicity Ratio (IC50 in the presence of HSA to IC50 without HSA)” value is listed as 18.4. In addition, the Kcat at E. coli β-glucuronidase is 45.1 s⁻¹. Further, at E. coli β-glucuronidase, the Km was 4.6 µM. In addition, in [4], the “Po/w (octanol/water partition coefficient)” value is −0.44. Moreover, the Po/w in [4] (Buffer pH 7.4) is on record as −1.01; in data set [4] (water), −0.44. The octanol/water partition coefficient entry in data set [4] (pH not stated (discussion)) is recorded as “about −1”.
With `O=C(O)[C@H]1O[C@@H](Oc2ccc([N+](=O)[O-])cc2)[C@H](O)[C@@H](O)[C@@H]1O` [PNPG, p-nitrophenol β-D-glucuronide], at E. coli β-glucuronidase, the Kcat came to 173 s⁻¹ and the Km amounted to 490 ± 84 µM.
On to `CC[C@@]1(O)C(=O)OCc2c1cc1n(c2=O)Cc2cc3c(NC(=O)OCc4ccc(O[C@@H]5O[C@H](C(=O)O)[C@@H](O)[C@H](O)[C@H]5O)cc4)cccc3nc2-1` [9ACG, 9-amino-camptothecin-glucuronide], for which the “Cytotoxicity Ratio (IC50 in the presence of HSA to IC50 without HSA)” value in [2] was above 15. For the same molecule, the 50% inhibitory concentration (IC50) in [2] (CL1-5, +HSA (40 mg/ml)) is above 10000 nM; in [2] (CL1-5, −HSA), 650 ± 40 nM. In addition, at E. coli β-glucuronidase, the Kcat was 8.6 s⁻¹. Moreover, the Km on E. coli β-glucuronidase was 30 µM.
`CC[C@@]1(O)C(=O)OCc2c1cc1n(c2=O)Cc2c-1nc1ccc(O)c3c1c2CCC3` [BQC, 5,6-dihydro-4H-benzo[de]quinoline-camptothecin]: the values for the Solubility in “Water solubility” (Buffer pH 4.5), in the data set “Water solubility” (Buffer pH 7.0) and in the data set “Water solubility” (water) were 0.120 µg/mL (≈ 0.297 µM), 0.200 µg/mL (≈ 0.495 µM) and 0.200 µg/mL (≈ 0.495 µM), respectively. Moreover, the “solubility in water-based buffers” value came out at 0.125 µg/mL (≈ 0.309 µM) in “Water solubility” (pH 4.5) and 0.2 µg/mL (≈ 0.495 µM) in the data set “Water solubility” (pH 7.0). Also, the IC50 was 1 to 2 nM in the data set with other cancer cell lines; 1.31 ± 0.03 nM with LS174T; 1.78 ± 0.08 nM in data set [1]; 13 nM in data set [2] (CL1-5, +HSA (40 mg/ml)); 1.4 nM and 1.37 nM in data set [2] (CL1-5, −HSA); 1.25 ± 0.05 nM in the data set with CaSki. Moreover, the “Cytotoxicity Ratio (IC50 in the presence of HSA to IC50 without HSA)” value in [2] (CL1-5) worked out at 9.5. In addition, in [4], the “Po/w (octanol/water partition coefficient)” value worked out at 1.67. The results for the Po/w in [4] (Buffer pH 7.4) and in data set [4] (water) were 1.46 and 1.98, respectively.
